From ChEMBL document CHEMBL1201862, “PubChem BioAssay data set” (2004) come the findings set out here.

What all share (assay): NCI anticancer screen, dose series, 48 h
Test [1] concerns SK-MEL-2.
The subject of test [2] is 786-0.
In test [3] the test system is ACHN.
The test system of test [4] is SK-OV-3.
The test system of test [5] is NCI-H23.
In test [6] the test system is A498.
Test [7] relates to U-251.
Test [8] relates to MCF7.
For test [9], the system named is SF-539.
Test [10] deals with MDA-N.
For test [11], the system named is HT-29.
Test [12] relates to HOP-62.
Test [13] relates to OVCAR-5.
Test [14] deals with SW-620.
The subject of test [15] is KM12.
The subject of test [16] is IGROV-1.
Test [17] concerns PC-3.
The test system of test [18] is HL-60.
Test [19] relates to HOP-92.
The subject of test [20] is OVCAR-8.

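Step 1: Grow cells in 96-well plates. Step 2: Expose to compound for 48 hours at 5 concentrations. Step 3: Interpolate endpoints linearly; if unreached, use highest concentration. The concentration for 50% growth inhibition is given as GI50.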 Activity calls are given as the source filed them. Cut-off read from the data, not from the text of the source: active = GI50 up to about 1.1 µM and inactive = higher.

For `N#CCCN(CCC#N)c1ccc(/C=C2\SC(=S)NC2=O)cc1`, the GI50 in test [1] was > 100 µM (inactive); in test [2] it was 30 µM (inactive); in [3], 41.5 µM (inactive); in test [4], > 100 µM (inactive); in test [5] it was > 100 µM (inactive); in test [6] it was 57.1 µM (inactive). Also, the GI50 was 20.3 µM (inactive) in [7]; > 100 µM (inactive) in test [8]; > 100 µM (inactive) in test [9]; > 100 µM (inactive) in test [10]; > 100 µM (inactive) in test [11]; 35.2 µM (inactive) in test [12]. Moreover, the GI50 in test [13], in test [14], in test [15], in test [16], in [17] and in [18] was > 100 µM (inactive) in each case. The results for the GI50 in test [19] and in [20] were 75.9 µM (inactive) and 44.2 µM (inactive), respectively.

For the compound `C=C1C(=O)C2=CC1CCC(=O)C1(C)CCC(OC(C)=O)C(C)(C)C1CC2O` (centres undefined), the GI50 in test [1] is 5 µM (inactive); in test [2], 3.01 µM (inactive); in test [3], 1.12 µM (inactive); in test [4] it was 8.95 µM (inactive); in test [5], 2.64 µM (inactive); in test [6] it was 3.18 µM (inactive). The GI50 in [7] is 2.93 µM (inactive); in test [8], 0.798 µM (active); in test [9], 2.1 µM (inactive); in test [10] it was 1.4 µM (inactive); in test [11] it was 1.35 µM (inactive); in [12], 8.45 µM (inactive). The GI50 in test [13] was 5.32 µM (inactive); in [14] it was 2.42 µM (inactive); in test [15], 3.31 µM (inactive); in test [16], 3.03 µM (inactive); in test [17], 7.19 µM (inactive); in test [18] it was 0.288 µM (active). In addition, the GI50 in test [19] was 4.22 µM (inactive); in [20], 3.81 µM (inactive).

For the compound `O=C(O)Cc1ccccc1` [PHENYLACETIC ACID], the GI50 in test [1], in test [2], in test [3], in [4], in [5] and in test [6] was > 100 µM (inactive) in each case. Moreover, the GI50 was > 100 µM (inactive) in test [7]; > 1000 µM (inactive) in test [8]; > 100 µM (inactive) in test [9]; > 100 µM (inactive) in test [10]; > 100 µM (inactive) in [11]; > 100 µM (inactive) in [12]. The GI50 in [13], in test [14], in [15], in test [16], in test [17] and in [18] was > 100 µM (inactive) in each case. Moreover, the GI50 in test [19] was 11.4 µM (inactive); in test [20] it was > 100 µM (inactive).

Consider `Cc1cccc2c(N)c3cccc(C(=O)NCCN4CCOCC4)c3nc12`, for which the GI50 in test [1] was 1.11 µM (active); in [2], 0.218 µM (active); in test [3] it was 0.101 µM (active); in test [4] it was 1.05 µM (active); in test [5], 0.33 µM (active); in test [6], 1.31 µM (inactive). In addition, the GI50 was 0.531 µM (active) in test [7]; 0.265 µM (active) in [8]; 0.171 µM (active) in [9]; 0.6 µM (active) in test [10]; 0.116 µM (active) in test [11]; 0.363 µM (active) in test [12]. Further, the GI50 was 0.627 µM (active) in test [13]; 0.166 µM (active) in test [14]; 0.301 µM (active) in test [15]; 0.224 µM (active) in test [16]; 0.436 µM (active) in test [17]; 0.362 µM (active) in test [18]. Besides, the GI50 in [19] is 3.48 µM (inactive); in test [20], 0.249 µM (active).

For `C[C@H]1CC[C@@H]2[C@@H](C)[C@H]3[C@H](C[C@H]4[C@@H]5CC=C6C[C@@H](O)CC[C@]6(C)[C@H]5CC[C@]34C)N2C1`, the GI50 in test [1] is > 100 µM (inactive); in test [2], 30.4 µM (inactive); in test [3] it was 59.8 µM (inactive); in test [4] it was > 100 µM (inactive); in test [5] it was 88.5 µM (inactive); in test [6], 13.6 µM (inactive). In addition, the GI50 is 31.8 µM (inactive) in test [7]; 38.5 µM (inactive) in test [8]; 65.9 µM (inactive) in test [9]; > 100 µM (inactive) in test [10]; 18.6 µM (inactive) in [11]; 31.4 µM (inactive) in test [12]. In addition, the GI50 is > 100 µM (inactive) in [13]; 75.2 µM (inactive) in [14]; 30.3 µM (inactive) in test [15]; 27.9 µM (inactive) in [16]; 50.9 µM (inactive) in test [17]; 17.5 µM (inactive) in [18]. The GI50 in test [19] is 12.6 µM (inactive); in test [20], 32.5 µM (inactive).

In the case of `OC(c1cc(C23CC4CC(CC(C4)C2)C3)nc2c(Cl)cc(Cl)cc12)C1CCCCN1` (centres undefined), the GI50 in test [1] is 1.87 µM (inactive); in test [2], 1.57 µM (inactive); in [3], 1.69 µM (inactive); in [4], 1.77 µM (inactive); in [5] it was 1.85 µM (inactive); in test [6], 1.7 µM (inactive). Besides, the GI50 in test [7] was 1.51 µM (inactive); in test [8] it was 1.6 µM (inactive); in [9], 2.13 µM (inactive); in test [10], 1.68 µM (inactive); in test [11], 1.58 µM (inactive); in test [12] it was 1.53 µM (inactive). Moreover, the GI50 was 1.79 µM (inactive) in test [13]; 1.57 µM (inactive) in test [14]; 1.67 µM (inactive) in test [15]; 1.77 µM (inactive) in test [16]; 1.62 µM (inactive) in test [17]; 2.11 µM (inactive) in test [18]. Moreover, the GI50 in [19] was 2.05 µM (inactive); in test [20], 2.36 µM (inactive).

For `O=P1(N(CCCl)CCCl)Oc2c(Cl)cc(Cl)c(Cl)c2Cc2c(Cl)c(Cl)cc(Cl)c2O1`, the GI50 was 22 µM (inactive) in test [1]; 90.4 µM (inactive) in test [2]; 51.1 µM (inactive) in test [3]; 43.2 µM (inactive) in test [4]; 21.4 µM (inactive) in [5]; > 100 µM (inactive) in [6]. The GI50 in [7] was 96.6 µM (inactive); in test [8] it was 64.7 µM (inactive); in test [9], > 100 µM (inactive); in [10], 67.8 µM (inactive); in [11], 41.4 µM (inactive); in test [12], 64 µM (inactive). The GI50 in [13] is 30.8 µM (inactive); in test [14], 47.4 µM (inactive); in test [15] it was 42 µM (inactive); in [17] it was 23.2 µM (inactive); in test [18], > 100 µM (inactive); in [19], 24.5 µM (inactive). Besides, the GI50 in test [20] is 55.1 µM (inactive).
